The values that follow come from PubChem BioAssay AID330 (DTP/NCI, 2004).

“And” between values parts separate entries of the source, which are not always exact repeats. Identical values can stand only once. Toxic doses and inconclusive results are not listed.

The subject of the assay is P388 leukemia ip, CD2F1 mice, survival T/C. As to the kind of experiment: NCI In Vivo Anticancer Drug Screen. Data for tumor model P388 Leukemia (intraperitoneal) in CD2F1 (CDF1) mice. To be noted: endpoint: median survival time, higher = longer survival. The essentials: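 Mice carrying the transplanted tumor received test compound or vehicle. Survival was recorded in each group, and the value is the treated-group measurement divided by that of the vehicle-treated control group.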

Setting [1] is: dose: 50.0 mg/kg/injection, schedule: Q01DX005 (ip), vehicle: saline with Tween-80.
Setting [2] is: dose: 100.0 mg/kg/injection, schedule: Q01DX005 (ip), vehicle: saline with Tween-80.
Setting [3] is: dose: 200.0 mg/kg/injection, schedule: Q01DX005 (ip), vehicle: saline with Tween-80.
Setting [4] is: dose: 12.5 mg/kg/injection, schedule: Q04DX003 (ip), vehicle: saline.
[5] abbreviates: dose: 100.0 mg/kg/injection, schedule: Q04DX003 (ip), vehicle: saline.
The mark [6] stands for this setting: dose: 50.0 mg/kg/injection, schedule: Q04DX003 (ip), vehicle: saline with Tween-80.
[7] abbreviates: dose: 100.0 mg/kg/injection, schedule: Q04DX003 (ip), vehicle: saline with Tween-80.
The mark [8] stands for this setting: dose: 200.0 mg/kg/injection, schedule: Q04DX003 (ip), vehicle: saline with Tween-80.
Where [9] appears, read: dose: 100.0 mg/kg/injection, schedule: Q01DX009 (ip), vehicle: Klucel (hydroxypropylcellulose) (HPC).
Setting [10] is: dose: 200.0 mg/kg/injection, schedule: Q01DX009 (ip), vehicle: Klucel (hydroxypropylcellulose) (HPC).
[11] abbreviates: dose: 50.0 mg/kg/injection, schedule: Q01DX009 (ip), vehicle: Klucel (hydroxypropylcellulose) (HPC).

`COc1cc2cc(c1Cl)N(C)C(=O)/C=C/C1(C)OC1C(C)C1CC(O)(NC(=O)O1)C(OC)/C=C/C=C(\C)C2OC` (stereo unspecified): the T/C reads like this: (dose: 4.0 micrograms/kg/injection, schedule: Q01DX009 (ip), vehicle: distilled water + alcohol) 103 % of control; (dose: 8.0 micrograms/kg/injection, schedule: Q01DX009 (ip), vehicle: distilled water + alcohol) 100 % of control; (dose: 64.0 micrograms/kg/injection, schedule: Q01DX009 (ip), vehicle: distilled water + alcohol) 99 % of control; (dose: 128.0 micrograms/kg/injection, schedule: Q01DX009 (ip), vehicle: distilled water + alcohol) 91 % of control.
For `COc1cc(CC2COC(=O)C2(O)Cc2ccc(O)c(OC)c2)ccc1O` (stereo unspecified), the T/C runs as follows: under setting [1], 98 % of control; under setting [2], 95 % of control; under setting [3], 100 % of control.
For `CCC1(CC)c2c(ccc(OC)c2OC)C=C2c3cc4c(cc3CCN21)OCO4`, the T/C by setting is: (dose: 0.63 mg/kg/injection, schedule: Q01DX009 (ip), vehicle: distilled water + Tween-80) 108 % of control; (dose: 0.63 mg/kg/injection, schedule: Q01DX009 (ip), vehicle: water) 94 % of control; (dose: 1.25 mg/kg/injection, schedule: Q01DX009 (ip), vehicle: distilled water + Tween-80) 108 % of control; (dose: 1.25 mg/kg/injection, schedule: Q01DX009 (ip), vehicle: water) 103 % of control; (dose: 2.5 mg/kg/injection, schedule: Q01DX009 (ip), vehicle: distilled water + Tween-80) 123 % of control; (dose: 2.5 mg/kg/injection, schedule: Q01DX009 (ip), vehicle: water) 112 % of control.
With `CNc1nc2ncnc(NC)c2[nH]1`, the T/C reads like this: under setting [1], 99 % of control; under setting [2], 92 % of control; under setting [3], 90 % of control.
Consider `CCOC(=O)C(N)Cc1ccc(N(CCCl)CCCl)cc1` (stereo unspecified), for which the T/C (dose: 0.5 mg/kg/injection, schedule: Q04DX003 (ip), vehicle: saline) was 180 % of control; the T/C (dose: 1.0 mg/kg/injection, schedule: Q04DX003 (ip), vehicle: saline) is 195 % of control; the T/C (dose: 2.0 mg/kg/injection, schedule: Q04DX003 (ip), vehicle: saline) was 250 % of control; the T/C (dose: 3.13 mg/kg/injection, schedule: Q01DX009 (ip), vehicle: saline) is 272 % of control; the T/C (dose: 6.25 mg/kg/injection, schedule: Q01DX009 (ip), vehicle: saline) was 100 % of control; the T/C (dose: 6.25 mg/kg/injection, schedule: Q04DX003 (ip), vehicle: saline) is 272 % of control. Further, the T/C was 240 % of control under setting [4]; 113 % of control (dose: 63.0 micrograms/kg/injection, schedule: Q04DX003 (ip), vehicle: saline); 113 % of control (dose: 125.0 micrograms/kg/injection, schedule: Q04DX003 (ip), vehicle: saline).
As to `CC(C)(OC(=O)NC(Cc1cnc[nH]1)C(=O)O)c1ccc(N=Nc2ccccc2)cc1` (stereo unspecified), the T/C runs as follows: (dose: 50.0 mg/kg/injection, schedule: Q01DX009 (ip), vehicle: saline with Tween-80) 97 % of control; (dose: 100.0 mg/kg/injection, schedule: Q01DX009 (ip), vehicle: saline with Tween-80) 94 % of control; (dose: 200.0 mg/kg/injection, schedule: Q01DX009 (ip), vehicle: saline with Tween-80) 97 % of control.
As to `NC(COc1ccccc1)Cc1ccccc1` (stereo unspecified), the T/C was 100 % of control under setting [4]; 100 % of control (dose: 25.0 mg/kg/injection, schedule: Q04DX003 (ip), vehicle: saline); 102 % of control (dose: 50.0 mg/kg/injection, schedule: Q04DX003 (ip), vehicle: saline); 99 % of control under setting [5].
For `CC1(CCC(=O)c2ccc3c(c2)OCO3)OCCO1`, the T/C is 116 % of control (dose: 60.0 mg/kg/injection, schedule: Q01DX005 (ip), vehicle: saline with Tween-80); 105 % of control (dose: 120.0 mg/kg/injection, schedule: Q01DX005 (ip), vehicle: saline with Tween-80); 100 % of control (dose: 240.0 mg/kg/injection, schedule: Q01DX005 (ip), vehicle: saline with Tween-80).
As for `OCCOc1ccc2ccccc2c1-c1c(OCCO)ccc2ccccc12`, the T/C was 100 % of control under setting [6]; 100 % of control under setting [7]; 100 % of control under setting [8]; 100 % of control (dose: 400.0 mg/kg/injection, schedule: Q04DX003 (ip), vehicle: saline with Tween-80).
Take `COC1(NS(=O)(=O)c2ccc(C)cc2)CC1`: the T/C was 103 % of control (dose: 60.0 mg/kg/injection, schedule: Q01DX005 (ip), vehicle: Klucel (hydroxypropylcellulose) (HPC)) and 91 % of control (dose: 120.0 mg/kg/injection, schedule: Q01DX005 (ip), vehicle: Klucel (hydroxypropylcellulose) (HPC)).
As to `O=C(O[C@H]1CCN2C[C@H]3C[C@H](CN4C(=O)CCC[C@H]34)[C@@H]2C1)c1ccc(O)cc1`, the T/C (dose: 6.25 mg/kg/injection, schedule: Q01DX005 (ip), vehicle: Klucel (hydroxypropylcellulose) (HPC)) was 103 % of control; the T/C (dose: 12.5 mg/kg/injection, schedule: Q01DX005 (ip), vehicle: Klucel (hydroxypropylcellulose) (HPC)) is 106 % of control; the T/C (dose: 25.0 mg/kg/injection, schedule: Q01DX005 (ip), vehicle: Klucel (hydroxypropylcellulose) (HPC)) is 104 % of control.
`OCC(O)C(O)C(O)c1nn(-c2ccccc2)c2nc3ccccc3nc12` (stereo unspecified): the T/C is 94 % of control (dose: 25.0 mg/kg/injection, schedule: Q01DX005 (ip), vehicle: saline with Tween-80); 100 % of control and 90 % of control under setting [1]; 90 % of control under setting [2]; 90 % of control under setting [3].
With `CCCCCCCCCCCCCCCCS(=O)(=O)c1ccc(NN)cc1`, the T/C under setting [9] was 90 % of control; the T/C under setting [10] was 89 % of control; the T/C (dose: 400.0 mg/kg/injection, schedule: Q01DX009 (ip), vehicle: Klucel (hydroxypropylcellulose) (HPC)) is 87 % of control.
Take `OC1C(CCl)OC(OC2(CCl)OC(CCl)C(O)C2O)C(O)C1O` (stereo unspecified): the T/C runs as follows: under setting [11], 94 % of control; under setting [9], 109 % of control; under setting [10], 110 % of control.
Consider `Cc1cc(NC(=S)SCc2ccc3c(c2)OCO3)c([N+](=O)[O-])cc1C`, for which the T/C reads like this: (dose: 50.0 mg/kg/injection, schedule: Q01DX009 (ip), vehicle: suspension in saline) 98 % of control; (dose: 100.0 mg/kg/injection, schedule: Q01DX009 (ip), vehicle: suspension in saline) 100 % of control; (dose: 200.0 mg/kg/injection, schedule: Q01DX009 (ip), vehicle: suspension in saline) 108 % of control.
With `COc1cc(C=C(C(C)=O)C(C)=O)ccc1O`, the T/C runs as follows: under setting [6], 100 % of control; under setting [7], 100 % of control; under setting [8], 100 % of control.
Take `O=c1[nH]cnc2ccc3[nH]ncc3c12`: the T/C reads like this: under setting [1], 92 % of control; under setting [2], 94 % of control; under setting [3], 105 % of control.
With `CCCCN(C)C12CN3CN(CN(C3)C1)C2`, the T/C runs as follows: under setting [11], 101 % of control; under setting [9], 103 % of control; under setting [10], 96 % of control.
With `Oc1cccc2c1[O][Sb][O]2`, the T/C was 120 % of control (dose: 4.0 mg/kg/injection, schedule: Q01DX009 (ip), vehicle: Klucel (hydroxypropylcellulose) (HPC)); 101 % of control (dose: 4.0 mg/kg/injection, schedule: Q03HX016 (ip), vehicle: Klucel (hydroxypropylcellulose) (HPC)); 103 % of control (dose: 4.0 mg/kg/injection, schedule: Q03HX024 (ip), vehicle: Klucel (hydroxypropylcellulose) (HPC)); 116 % of control (dose: 8.0 mg/kg/injection, schedule: Q03HX024 (ip), vehicle: Klucel (hydroxypropylcellulose) (HPC)); 166 % of control (dose: 50.0 mg/kg/injection, schedule: Q01DX009 (ip), vehicle: saline); 122 % of control (dose: 64.0 mg/kg/injection, schedule: Q01DX001 (ip), vehicle: Klucel (hydroxypropylcellulose) (HPC)). For the same compound, the T/C (dose: 128.0 mg/kg/injection, schedule: Q01DX001 (ip), vehicle: Klucel (hydroxypropylcellulose) (HPC)) is 115 % of control.
`CN1C(Cc2ccccc2)N(S(=O)(=O)C2C=CC=CC=C2)CC1(C)C` (stereo unspecified): the T/C was 101 % of control under setting [5]; 99 % of control (dose: 200.0 mg/kg/injection, schedule: Q04DX003 (ip), vehicle: saline); 93 % of control (dose: 400.0 mg/kg/injection, schedule: Q04DX003 (ip), vehicle: saline).
